Where a SMILES comes first, the peptide text is derived from it. Bridges are numbered along the chain shown (N, C = ends).

We go through two compounds from patent EP1001810B1, “PHARMACEUTICAL COMPOSITION WITH NEUROTROPHIC-LIKE BIOLOGICAL ACTIVITY” (McGill University, priority 1997, dated 1999).

In data set [1] the target is TrkA (Homo sapiens, UniProt P04629). The settings on record: binds TrkA specifically (LeSauteur 1995); read-out: apparent Kd; cited from earlier work.
The subject of data set [2] is 4-3.6 cells. Nature of the data set: Cell survival in SFM challenged with tyrosine kinase inhibitor K252a. It counts as cell-based, rat. The settings on record: highest concentration tested (500 nM). How it is done:
5,000 cells/well in protein-free media (PFHM-II, GIBCO, Toronto, Ontario) containing 0.1% BSA (Crystalline fraction V, Sigma, St. Louis MO) were added to 96 well plates (Falcon, Mississauga, Ontario). The cultures were untreated or supplemented with serial dilutions of neurotrophins (positive control), test mAbs, or mouse IgG (negative control). The survival profile of the cells was quantitated using the MTT colorimetric assay after 48-72 hours. Percent protection was standardized relative to 1 nM NGF concentrations using the MTT optical density (OD 590 nm) and following formula: [(ODtest -ODuntreated )/(OD1nM NGF-ODuntreated )] × 100. [formula] The OD of untreated samples (SFM only) were ~10% of 1 nM NGF control.
Some survival experiments were also carried out in the presence of various concentrations of the tyrosine kinase inhibitor K252a. The concentrations of K252a used were previously reported.
Assays were done as described in Table 1 legend. 4-3.6 cell survival in SFM achieved by incubation with the indicated ligands. Optimal ligand concentrations were used as per Table 3 (1 nM NGF, 5 nM 5C3 mAb and 5 nM 5C3 + 0.5 nM MC192 mAbs) . Cells were challenged with various concentrations of K252a and % survival was calculated using 1 nM NGF as 100% standard. K252a inhibits both NGF and mAb-mediated survival in a dose dependent manner and to a similar relative degree.

Sequence of TrkA (P04629 33-796, species assumed): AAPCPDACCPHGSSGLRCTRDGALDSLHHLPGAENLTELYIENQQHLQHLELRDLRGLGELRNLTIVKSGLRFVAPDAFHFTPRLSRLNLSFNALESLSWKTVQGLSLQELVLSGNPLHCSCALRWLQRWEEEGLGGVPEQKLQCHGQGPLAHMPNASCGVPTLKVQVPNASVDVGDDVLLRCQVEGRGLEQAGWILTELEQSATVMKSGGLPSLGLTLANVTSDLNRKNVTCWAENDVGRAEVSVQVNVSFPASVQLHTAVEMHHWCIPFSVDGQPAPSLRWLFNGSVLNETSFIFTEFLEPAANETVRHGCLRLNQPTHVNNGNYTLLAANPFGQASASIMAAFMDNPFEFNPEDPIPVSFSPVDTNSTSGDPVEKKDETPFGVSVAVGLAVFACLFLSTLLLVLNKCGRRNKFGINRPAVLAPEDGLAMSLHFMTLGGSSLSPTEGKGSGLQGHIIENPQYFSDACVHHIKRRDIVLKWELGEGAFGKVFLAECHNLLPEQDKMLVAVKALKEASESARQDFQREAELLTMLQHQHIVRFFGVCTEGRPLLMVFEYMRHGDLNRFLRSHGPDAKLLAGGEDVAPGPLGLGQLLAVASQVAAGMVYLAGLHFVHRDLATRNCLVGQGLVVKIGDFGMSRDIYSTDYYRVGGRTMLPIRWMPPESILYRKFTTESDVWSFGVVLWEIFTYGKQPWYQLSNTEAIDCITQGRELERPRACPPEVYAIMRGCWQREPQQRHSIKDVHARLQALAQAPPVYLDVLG

For `CC(=O)N[C@@H](Cc1ccc(O)cc1)C(=O)N[C@H]1CSSC[C@@H](C(=O)N[C@@H](Cc2ccc(O)cc2)C(=O)O)NC(=O)[C@H](CCC(N)=O)NC(=O)[C@H](CCCCN)NC(=O)[C@H](CCC(=O)O)NC(=O)[C@H](CC(=O)O)NC(=O)[C@H]([C@@H](C)O)NC1=O` [C(92-96)] (Ac-YCTDEKQCY-OH; disulfide 2-8), in data set [1], the Kd was roughly 0.1 µM. Take `COC(=O)[C@@]1(O)C[C@H]2O[C@]1(C)n1c3ccccc3c3c4c(c5c6ccccc6n2c5c31)C(=O)NC4` [K252a]: the “toxicity to 4-3.6 cells” value in data set [2] is listed as “not toxic”.
